Laboratory results published in patent publication US8497349B2, “Use of multivalent synthetic ligands of surface nucleolin for treating cancer or inflammation” (Centre National de la Recherche Scientifique (CNRS), priority 2006, dated 2013).
pIC50: −log10 of the molar value. Side chains are listed from the residue outwards. Peptide text beside a SMILES is read from it. * marks the point of attachment. X1 = NCCCC[C@H](N)CN1CCC[C@H]1C(=O)*

Columns and labels:
[1] = biological target: T1, surface nucleolin (Homo sapiens, UniProt P19338); experiment: Activity of surface nucleolin in HeLa P4 cells; type: cell-based
T1 construct: endogenous in cells; host or cells: HeLa P4 cells
T1 sequence (P19338 whole entry): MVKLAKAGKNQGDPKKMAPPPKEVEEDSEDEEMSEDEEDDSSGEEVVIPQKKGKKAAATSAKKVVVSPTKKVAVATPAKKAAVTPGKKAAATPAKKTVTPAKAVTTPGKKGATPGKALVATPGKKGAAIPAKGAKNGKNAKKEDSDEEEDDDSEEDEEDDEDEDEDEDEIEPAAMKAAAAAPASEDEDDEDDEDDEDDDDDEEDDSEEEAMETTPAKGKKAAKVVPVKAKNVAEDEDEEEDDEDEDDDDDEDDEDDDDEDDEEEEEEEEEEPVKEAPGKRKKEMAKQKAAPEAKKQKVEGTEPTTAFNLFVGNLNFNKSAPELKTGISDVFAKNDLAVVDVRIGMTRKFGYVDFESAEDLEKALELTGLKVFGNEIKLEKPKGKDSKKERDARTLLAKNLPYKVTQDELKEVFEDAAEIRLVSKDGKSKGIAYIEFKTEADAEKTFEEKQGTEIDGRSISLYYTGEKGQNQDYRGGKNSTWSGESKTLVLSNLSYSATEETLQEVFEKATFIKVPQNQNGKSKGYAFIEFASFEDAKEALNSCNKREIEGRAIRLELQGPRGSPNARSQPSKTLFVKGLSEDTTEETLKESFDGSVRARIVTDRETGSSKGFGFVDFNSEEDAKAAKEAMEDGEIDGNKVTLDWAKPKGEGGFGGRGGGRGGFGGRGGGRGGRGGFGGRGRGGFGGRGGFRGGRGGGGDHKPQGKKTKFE
Method: FIG. 15. Nucant 6 and Nucant 7 show better anti-surface nucleolin activity than HB-19. ID50: concentration in μM which inhibits surface nucleolin by 50%. ID95: concentration in μM which inhibits surface nucleolin by 95%.
The activity of surface nucleolin was tested in HeLa P4 cells using the technique we have described previously (13).

[2] = test system: NIH-3T3 cells; experiment: Proliferation of NIH-3T3 cells stimulated by 5% foetal calf serum (tritiated thymidine incorporation); type: cell-based; conditions: non-stimulated NIH-3T3 cells
Method: FIG. 5. Effect of HB-19 on the proliferation of NIH-3T3 cells stimulated by 0.2 nM FGF-2 (A) or by 5% foetal calf serum (B). Quiescent NIH-3T3 cells are stimulated by FGF-2 or by 5% serum in the presence or not of HB19 at the concentrations indicated. After 24 hours of incubation, cell proliferation was determined by measuring the incorporation of tritiated thymidine. The results are given as a percentage with respect to the control stimulated by HARP (100%). MSD (threshold), (**p<0.01 and ***p<0.001).
FIG. 14. Effect of NUCANT 3, 6 and 7 on the proliferation of NIH-3T3 cells stimulated by 5% FCS. […] After 24 hours of incubation, cell proliferation was determined by measuring the incorporation of tritiated thymidine. […]
The effect of Nucant 3 on the proliferation of NIH-3T3 cells treated by 5% of FCS was also compared to that of compound HB-19. […] After 24 hours in incubation, cell proliferation is determined by measuring the incorporation of tritiated thymidine as described earlier.
The effect of hexavalent compounds Nucant 6 and Nucant 7 on the proliferation of NIH-3T3 cells triggered by 5% FCS was compared with that of pentavalent compound HB-19. […] After 24 hours of incubation, cell proliferation was determined by measuring the incorporation of tritiated thymidine as described above.

[3] = test system: MDA-MB231 tumours; experiment: Tumour growth in MDA-MB231 xenograft model in athymic mice; type: in vivo, athymic mice (nude/nude)
Method: FIG. 9. Effect of HB-19 on tumour growth in an MDA-MB231 xenograft model. Human mammary carcinoma MDA-MB231 cells were injected subcutaneously athymic mice (nude). When the tumour reached a volume of 200 mm^3, mice were treated by subcutaneous route as shown in graph in A. B. Observation and measurement of tumours in mice sacrificed at day 40. C. Tumour weight in mice sacrificed at day 40.
FIG. 10. Effect of HB-19 on tumour growth in an MDA-MB231 xenograft model. Changes in tumour growth. Intraperitoneal (IP) or subcutaneous (SC) injections.
Groups of 4 athymic mice (nude/nude) were injected in the flank with 2×10^6 cells. When tumour volume reached at least 200 mm^3, mice were either treated or not by injection in the tumour (peritumoral or subcutaneous route) of 100 μl every two days of a PBS solution (control group) or HB-19 solution (5 mg/kg) or a commonly used clinical agent, tamoxifen (also called […], 10 mg/kg). Tumour size was measured on days 7, 14, 21, 28, 34 and 40 using a calliper.
In another experiment, HB19 (5 mg/kg) was administered by intraperitoneal route (IP) and peritumoral route (SC) (FIG. 10).

[4] = cited from earlier work
[5] = 10 mg/kg, mice sacrificed after 40 days of treatment

In the case of `CC(=O)N[C@@H](CCCCNC(=O)[C@H](CCCNC(=N)N)NC(=O)[C@@H]1CCCN1C[C@@H](N)CCCCN)C(=O)N[C@@H](C)C(=O)N[C@@H](CCCCNC(=O)[C@H](CCCNC(=N)N)NC(=O)[C@@H]1CCCN1C[C@@H](N)CCCCN)C(=O)N1CCC[C@H]1C(=O)NCC(=O)N[C@@H](CCCCNC(=O)[C@H](CCCNC(=N)N)NC(=O)[C@@H]1CCCN1C[C@@H](N)CCCCN)C(=O)N[C@@H](C)C(=O)N[C@@H](CCCCNC(=O)[C@H](CCCNC(=N)N)NC(=O)[C@@H]1CCCN1C[C@@H](N)CCCCN)C(=O)N1CCC[C@H]1C(=O)NCC(=O)N[C@@H](CCCCNC(=O)[C@H](CCCNC(=N)N)NC(=O)[C@@H]1CCCN1C[C@@H](N)CCCCN)C(=O)N[C@@H](C)C(=O)N[C@@H](CCCCNC(=O)[C@H](CCCNC(=N)N)NC(=O)[C@@H]1CCCN1C[C@@H](N)CCCCN)C(=O)N1CCC[C@H]1C(=O)NCC(N)=O` [Nucant 7] (Ac-K([Arg-X1])AK([Arg-X1])PGK([Arg-X1])AK([Arg-X1])PGK([Arg-X1])AK([Arg-X1])PG-NH2), the inhibition at 0.8 µM ([1]; M-HeLa, 0.8 μM) was > 95%, the pIC50 ([1]; read-out: ID50 value (Inhibitory Dose at 50%), surface nucleolin activity) was > 7.00 and the “effect on non-stimulated cells (toxicity)” value [2] was “No effect”.

With `CC/C(=C(\c1ccccc1)c1ccc(OCCN(C)C)cc1)c1ccccc1` [tamoxifen] the “change of tumour volume from the start of treatment” value ([3]; 10 mg/kg every two days) was “did not change in a significant manner”, the “average weight of tumours” value [3, 5] was 0.06 g and the “distribution of tumour weight” value [3, 5] was 0.006 to 0.22 g.

In the case of Avastin: anti-angiogenic agent, the survival ([4]; complement to chemotherapy (irinotecan/5-fluorouracile/leucovorin)) is given as 20.3 months and the “length of time during which the tumour did not grow” value ([4]; complement to chemotherapy) is given as 10.6 months.
